Reference: patent publication US20090291950A1, “BICYCLIC HETEROARYL INHIBITORS OF PDE4” (KALYPSYS, INC., priority 2006, published 2009)

How the values were obtained:
PDE4B = biological target: T1, PDE4B (Homo sapiens, UniProt Q07343); experiment: coupled PDE/AK bioluminescent assay; type: biochemical; details: catalytic domain of PDE4B
T1 construct: hexahistidine (His6) (N); made in house
Excerpt: Phosphodiesterases regulate the activity of the second messenger cyclic adenosine monophosphate (cAMP) by hydrolyzing cAMP to adenosine monophosphate (AMP). We developed a novel coupled PDE/AK bioluminescent high-throughput assay to measure the activity of phosphodiesterases. In the PDE/AK assay, the AMP produced from the hydrolysis of cAMP by phosphodiesterase is converted to adenosine diphosphate (ADP) by the phosphotransferase activity of adenylate kinase (also known as ADK or myokinase). Adenylate kinase will catalyze the conversion of 1 mole of AMP and 1 mole of ATP into 2 moles of ADP. Thus the conversion of AMP to ADP will result in the subsequent loss of ATP. The decrease in ATP concentration can be monitored as light output using luciferase in a reaction that requires ATP to produce light. The PDE/AK assay uses luciferase, which catalyzes the production of light from ATP present in the reaction mix. The amount of emitted light is inversely proportional to the level of AMP present in the reaction. Test compounds are incubated with the phosphodiesterases and phosphodiesterase inhibitors will decrease the rate of cAMP hydrolysis and decrease the subsequent production of AMP. Thus phosphodiesterase inhibitors will decrease the conversion of ATP to ADP and result in the greatest emission of light.
Compounds may be screened for functional potency in in vitro biochemical assays for their ability to inhibit the activity of phosphodiesterase (PDE) enzymes. A novel coupled PDE/AK assay was utilized to measure the inhibitory activity of compounds on PDE isoforms. The catalytic domain of PDE4B was fused to an amino-terminus hex-histidine affinity tag and purified. PDE4B enzyme was incubated with compounds for 10 minutes. Cyclic AMP substrate, ATP and adenylate kinase were then added to the PDE enzyme mix and incubated for 45 minutes at room temperature. A commercial ATP detection assay, Perkin Elmer's easyLite ATP detection reagent, was then added to measure the relative amount of ATP present in the reaction. After 10 minute incubation, the luminescent signal was quantitated with either the Perkin Elmer Viewlux or Molecular Devices Acquest or Analyst. Roflumilast and Rolipram are the positive controls used in the assay.
The PDE/AK assay can be performed with any cAMP dependent phosphodiesterase, and can be performed in 96-, 384-, or 1536-well plates. […] Specifically, the use of radioactive substrates in a phosphodiesterase activity assay requires special protocols for handling and waste disposal, and reduced throughput. Modified substrates add the additional complexity of potentially altering the binding to the phosphodiesterase catalytic site. Fluorescently modified substrates may cause fluorescence artifacts that may interfere in the interpretation of assay results. The use of beads that selectively bind to either the cAMP or AMP may cause an additional complexity in reagent handling. The use of antibodies that selectively bind to either cAMP or AMP can be extremely costly with a relatively small signal to noise ratio. Therefore, the novel PDE/AK assay represents a simple, cost-effective alternative to known methods.

[1] = test system: dry eye (corneal staining, tear breakup time); experiment: Lacrimal gland inflammation-induced dry eye in rabbits; type: in vivo; details: topical ocular BID, rabbit ConA dry eye
Excerpt: A more detailed description of the assay used herein may be found in Naglehout, T J et al. 2005, “Preservation of Tear Film Integrity and Inhibition of Corneal Injury by Dexamethasone in a Rabbit Model of Lacrimal Gland Inflammation-Induced Dry Eye,”J. Ocular Pharm. Ther., 21:2. 139-148, the disclosure of which is hereby incorporated by reference as if written herein in its entirety. Rabbits (n=4/group) were randomized into treatment groups and dosed topically BID with maxidex vehicle or test drug beginning one day prior to initiation of dry eye. Each rabbit received bilateral lacrimal gland injections of saline or ConA (300 μg/30 μl) and topical ocular dosing was continued BID throughout the study. Desiccation was initiated 1-2 hours following lacrimal gland injection by placing conscious rabbits in the environmental chamber (10-15% humidity/72° F.). Following 72 consecutive hours of exposure to this dry environment, the animals were anesthetized and sutures were placed in each upper and lower eyelid and lifted to form a corneal/conjunctival cup. Methylene blue dye (1 mL, 1% in dH2O) was added to the cup for three minutes and the excess removed by washing with 200 mL BSS®. The contralateral eye was then stained using the same procedure. Rabbits were euthanized immediately following the staining procedure and the eyes were excised. The corneas were isolated with a trephine and the 9.5-mm punch of the cornea was placed in 2 mL acetone/saturated sodium sulfate (7:3, vol./vol.). Absorbance of the extracted dye was determined at 660 nm. TBUT was quantified in a separate group of treated animals. TBUT was determined by instilling 5 μL sodium fluorescein into the cul de sac and manually blinking the lids to distribute the fluorescein within the tear film. Under slit lamp observation, the eye was held open and the time whereby one or more black spots or streaks appeared in the precorneal tear film was recorded. The rabbits were euthanized 3 days following ConA inj ection.

[2] = 1 × 10^−2 percent concentration
[3] = 1 × 10^−4 percent concentration
[4] = 1 × 10^−6 percent concentration

T1 sequence (Q07343 330-659 limits assumed, species assumed): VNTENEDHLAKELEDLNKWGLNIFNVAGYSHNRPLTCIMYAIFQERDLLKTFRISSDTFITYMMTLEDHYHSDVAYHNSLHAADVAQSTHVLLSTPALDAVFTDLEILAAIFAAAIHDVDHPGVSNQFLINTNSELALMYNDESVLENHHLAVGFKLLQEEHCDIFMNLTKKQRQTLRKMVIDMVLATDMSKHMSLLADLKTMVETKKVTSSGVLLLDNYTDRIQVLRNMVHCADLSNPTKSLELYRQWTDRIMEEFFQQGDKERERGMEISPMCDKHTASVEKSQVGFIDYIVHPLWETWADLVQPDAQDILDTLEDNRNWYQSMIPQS

IC50 (PDE4B) [nM] | Structure (SMILES) | other results
≤ 1000 | CCOc1cc(Nc2c(Cl)cncc2Cl)c2ccc(OC)c(OC3CCCC3)c2n1 [Example 20, 8-(Cyclopentyloxy)-N-(3,5-dichloropyridin-4-yl)-2-ethoxy-7-methoxyquinolin-4-amine] | –
≤ 1000 | COc1ccc2c(Nc3c(Cl)cncc3Cl)cc(N(C)C)nc2c1OC1CCCC1 [Example 21, 8-(Cyclopentyloxy)-N4-(3,5-dichloropyridin-4-yl)-7-methoxy-N2,N2-dimethylquinoline-2,4-diamine] | –
≤ 1000 | CNc1cc(Nc2c(Cl)cncc2Cl)c2ccc(OC)c(OC3CCCC3)c2n1 [Example 22, 8-(Cyclopentyloxy)-N4-(3,5-dichloropyridin-4-yl)-7-methoxy-N2-methylquinoline-2,4-diamine] | –
≤ 1000 | COc1ccc2c(Nc3c(Cl)cncc3Cl)cc(N)nc2c1OC1CCCC1 [Example 23, 8-(Cyclopentyloxy)-N4-(3,5-dichloropyridin-4-yl)-7-methoxyquinoline-2,4-diamine] | Activity at Percent Concentration Tested [1, 2]: Inactive; Activity at Percent Concentration Tested [1, 3]: Inactive; Activity at Percent Concentration Tested [1, 4]: Inactive
≤ 1000 | COc1ccc2c(Nc3c(Cl)cncc3Cl)cc(Cl)nc2c1OC1CCCC1 [Example 24, 2-Chloro-8-(cyclopentyloxy)-N-(3,5-dichloropyridin-4-yl)-7-methoxyquinolin-4-amine] | –
≤ 1000 | COc1ccc2c(Nc3c(Cl)cncc3Cl)cc(OCCN(C)C)nc2c1OC1CCCC1 [Example 25, 8-(Cyclopentyloxy)-N-(3,5-dichloropyridin-4-yl)-2-(2-(dimethylamino)ethoxy)-7-methoxyquinolin-4-amine] | Activity at Percent Concentration Tested [1, 2]: Inactive; Activity at Percent Concentration Tested [1, 3]: Inactive; Activity at Percent Concentration Tested [1, 4]: Inactive
≤ 1000 | COc1ccc2c(Nc3c(Cl)cncc3Cl)c(Cl)c(OCCN(C)C)nc2c1OC1CCCC1 [Example 26, 3-Chloro-8-(cyclopentyloxy)-N-(3,5-dichloropyridin-4-yl)-2-(2-(dimethylamino)ethoxy)-7-methoxyquinolin-4-amine] | –
≤ 1000 | COc1ccc2c(Nc3c(Cl)cncc3Cl)cc(OCCO)nc2c1OC1CCCC1 [Example 27, 2-(8-(Cyclopentyloxy)-4-(3,5-dichloropyridin-4-ylamino)-7-methoxyquinolin-2-yloxy)ethanol] | –
≤ 1000 | COc1ccc2c(Nc3c(Cl)cncc3Cl)cc(OCCN3CCOCC3)nc2c1OC1CCCC1 [Example 28, 8-(Cyclopentyloxy)-N-(3,5-dichloropyridin-4-yl)-7-methoxy-2-(2-morpholinoethoxy)quinolin-4-amine] | –
≤ 1000 | COc1ccc2c(Nc3c(Cl)cncc3Cl)cc(OCCCN(C)C)nc2c1OC1CCCC1 [Example 29, 8-(Cyclopentyloxy)-N-(3,5-dichloropyridin-4-yl)-2-(3-(dimethylamino)propoxy)-7-methoxyquinolin-4-amine] | –

Further lines, the compound ahead of its results:

Structure (SMILES) | IC50 (PDE4B) [nM] | other results
COc1ccc2c(Nc3c(Cl)cccc3Cl)ncnc2c1OC1CCCC1 [Example 1, 8-(Cyclopentyloxy)-N-(2,6-dichlorophenyl)-7-methoxyquinazolin-4-amine] | > 1000 | –
COc1ccc2c(Nc3c(Cl)cncc3Cl)ncnc2c1OC1CCCC1 [Example 2, 8-(Cyclopentyloxy)-N-(3,5-dichloropyridin-4-yl)-7-methoxyquinazolin-4-amine] | > 1000 | –
COc1ccc2c(Cc3c(Cl)cncc3Cl)ncnc2c1OC1CCCC1 [Example 3, 8-(Cyclopentyloxy)-4-[(3,5-dichloropyridin-4-yl)methyl]-7-methoxyquinazoline] | ≤ 1000 | –
COc1ccc2c(Nc3c(Cl)cccc3Cl)ccnc2c1OC1CCCC1 [Example 4, 8-(Cyclopentyloxy)-N-(2,6-dichlorophenyl)-7-methoxyquinolin-4-amine] | > 1000 | –
COc1ccc2c(Nc3c(Cl)cncc3Cl)ccnc2c1OC1CCCC1 [Example 5, 8-(Cyclopentyloxy)-N-(3,5-dichloropyridin-4-yl)-7-methoxyquinolin-4-amine] | > 1000 | –
COc1ccc2c(Cc3c(Cl)cncc3Cl)ccnc2c1OC1CCCC1 [Example 6, 8-(Cyclopentyloxy)-4-[(3,5-dichloropyridin-4-yl)methyl]-7-methoxyquinoline] | > 1000 | –
COc1ccc2c(Nc3c(Cl)cccc3Cl)nccc2c1OC1CCCC1 [Example 7, 5-(Cyclopentyloxy)-N-(2,6-dichlorophenyl)-6-methoxyisoquinolin-1-amine] | > 1000 | –
COc1ccc2c(Nc3c(Cl)cncc3Cl)nccc2c1OC1CCCC1 [Example 8] | ≤ 1000 | –
COc1ccc2c(Cc3c(Cl)cncc3Cl)nccc2c1OC1CCCC1 [Example 9, 5-(Cyclopentyloxy)-1-[(3,5-dichloropyridin-4-yl)methyl]-6-methoxyisoquinoline] | > 1000 | –
COc1ccc2c(Nc3c(Cl)cncc3Cl)coc2c1OC1CCCC1 [Example 10, 3,5-Dichloro-N-[7-(cyclopentyloxy)-6-methoxybenzofuran-3-yl]pyridine-4-amine] | > 1000 | –
COc1ccc2c(Nc3c(Cl)cccc3Cl)ccnc2c1OC [Example 11, N-(2,6-Dichlorophenyl)-7,8-dimethoxyquinolin-4-amine] | > 1000 | –
COc1ccc2c(NCc3c(Cl)cccc3Cl)coc2c1OC1CCCC1 [Example 12, 7-(Cyclopentyloxy)-N-(2,6-dichlorobenzyl)-6-methoxybenzofuran-3-amine] | > 1000 | –
COc1ccc2c(Nc3c(Cl)cnc(Cl)c3Cl)ccnc2c1OC1CCCC1 [Example 13, 8-(Cyclopentyloxy)-7-methoxy-N-(2,3,5-trichloropyridin-4-yl)quinolin-4-amine] | > 1000 | –
COc1ccc2c(Nc3c(Cl)c(Cl)nc(Cl)c3Cl)ccnc2c1OC1CCCC1 [Example 14, 8-(Cyclopentyloxy)-7-methoxy-N-(perchloropyridin-4-yl)quinolin-4-amine] | > 1000 | –
COc1ccc2c(Nc3c(C)cncc3C)ccnc2c1OC1CCCC1 [Example 15, 8-(Cyclopentyloxy)-N-(3,5-dimethylpyridin-4-yl)-7-methoxyquinolin-4-amine] | > 1000 | –
COc1ccc2c(Nc3c(Br)cncc3Br)ccnc2c1OC1CCCC1 [Example 16, 8-(Cyclopentyloxy)-N-(3,5-dibromopyridin-4-yl)-7-methoxyquinolin-4-amine] | > 1000 | –
COc1ccc2c(c1OC1CCCC1)OCCC2Nc1c(Cl)cncc1Cl (centres unmarked) [Example 17, 3,5-Dichloro-N-(8-(cyclopentyloxy)-7-methoxychroman-4-yl)pyridin-4-amine] | > 1000 | –
COc1ccc2c(C(=O)Nc3c(Cl)cncc3Cl)coc2c1OC1CCCC1 [Example 18, 7-(Cyclopentyloxy)-N-(3,5-dichloropyridin-4-yl)-6-methoxybenzofuran-3-carboxamide] | > 1000 | –
COc1cc(Nc2c(Cl)cncc2Cl)c2ccc(OC)c(OC3CCCC3)c2n1 [Example 19, 8-(Cyclopentyloxy)-N-(3,5-dichloropyridin-4-yl)-2,7-dimethoxyquinolin-4-amine] | ≤ 1000 | –
